Measurements published in patent US11253589B2, “Modulation of the immune response” (priority 2007, dated 2022).

Test system: AHR
Assay: ChIP analysis of the interaction of AHR with CABS and NCABS in foxp3
Type: cell-based, mouse
Conditions: CD4+ T cells treated with TCDD for 90'
Protocol: Briefly, cells were treated for 90′ with TCDD, fixed with 1% formaldehyde for 15 minutes and quenched with 0.125 M glycine. Chromatin was isolated and sheared to an average length of 300-500 bp by sonication. Genomic DNA (input) was prepared by treating aliquots of chromatin with RNase, proteinase K and heat for de-crosslinking, followed by ethanol precipitation. AHR-bound DNA sequences were immuno-precipitated with an AHR-specific antibody (Biomol SA-210). Crosslinks were reversed by incubation overnight at 65° C., and ChIP DNA was purified by phenol-chloroform extraction and ethanol precipitation. Quantitative PCR reactions were then performed using the following primer pairs:
Experimental Ct values were converted to copy numbers detected by comparison with a DNA standard curve run on the same PCR plates. Copy number values were then normalized for primer efficiency by dividing by the values obtained using Input DNA and the same primer pairs. Error bars represent standard deviations calculated from the triplicate determinations.

Clc1cc2c(cc1Cl)Oc1cc(Cl)c(Cl)cc1O2 [TCDD, 2,3,7,8 tetrachlorodibenzo-p-dioxin]
AHR binding to NCABS-1, NCABS-3 in foxp3 (ChIP): No significant increase in AHR binding
AHR binding to the CABS and NCABS-2 in foxp3 (ChIP): increased AHR binding to the CABS and NCABS-2
